Source: article PMC6057649, “Development of NanoLuc-PEST expressing Leishmania mexicana as a new drug discovery tool for axenic- and intramacrophage-based assays” (PLoS Neglected Tropical Diseases, 2018)

System: NanoLuc-PEST expressing L. mexicana axenic amastigotes
Assay: microbe, parasite or virus in culture
Type: cell-based
Conditions: for Relative Bioluminescence (%) / viability at 2 µM / viability at 10 µM: 72 hours, relative to DMSO only control, n = 4; for EC50: hit compounds from the axenic amastigote screen, S3 Table, read-out: EC50, Axenic Amastigotes; for viability at 2 µM / viability at 10 µM: Leishmania mexicana, read-out: Relative Bioluminescence (%)

SMILES: O=C(C(Cc1c[nH]c2ccccc12)NS(=O)(=O)c1ccc(Cl)cc1)N1CCCCC1 (stereo not shown) [MMV085210]
- Relative Bioluminescence (%) (2 µM compound): 65.83%
- Relative Bioluminescence (%) (10 µM compound): 73.33%

SMILES: CCCNC(=O)N1CCC2(CC1)CC(=O)c1cc(C)ccc1O2 [MMV085230]
- Relative Bioluminescence (%) (2 µM compound): 100.02%
- Relative Bioluminescence (%) (10 µM compound): 105.91%

SMILES: N#Cc1ccc(-c2cnc(N)c(-c3ccc(C(N)=O)cc3)n2)cc1 [MMV085499]
- Relative Bioluminescence (%) (2 µM compound): 98.08%
- Relative Bioluminescence (%) (10 µM compound): 54.27%

SMILES: CCOC(=O)NC(=O)c1ccsc1NC(=O)c1nc2ccccc2s1 [MMV090930]
- Relative Bioluminescence (%) (2 µM compound): 11.16%
- Relative Bioluminescence (%) (10 µM compound): -0.77%

SMILES: O=C(Nc1nnc(-c2ccc(Cl)cc2)o1)c1cccc(C(F)(F)F)c1 [MMV102872]
- Relative Bioluminescence (%) (2 µM compound): 0.33%
- Relative Bioluminescence (%) (10 µM compound): -0.65%
- EC50: 810 nM

SMILES: CCC(C)NC(=O)c1ccc(NC(=O)C2(c3ccccc3)CCCC2)cc1 (stereo not shown) [MMV146306]
- Relative Bioluminescence (%) (2 µM compound): 97.77%
- Relative Bioluminescence (%) (10 µM compound): 40.43%

SMILES: CCOC(=O)c1c(NC(=O)c2c(F)c(F)c(F)c(F)c2F)sc(C(N)=O)c1C [MMV153413]
- Relative Bioluminescence (%) (2 µM compound): 4.50%
- Relative Bioluminescence (%) (10 µM compound): 0.97%
- EC50: 520 nM

SMILES: Cc1cc(Cl)ccc1NC(=O)CCc1ccc(S(=O)(=O)NCC(C)C)cc1 [MMV161996]
- Relative Bioluminescence (%) (2 µM compound): 75.91%
- Relative Bioluminescence (%) (10 µM compound): 98.90%

SMILES: CNC(=O)C1Cc2ccccc2N1C(=O)Cc1ccc(F)cc1 (stereo not shown) [MMV188296]
- Relative Bioluminescence (%) (2 µM compound): 81.46%
- Relative Bioluminescence (%) (10 µM compound): 106.72%

SMILES: COc1ccc(C2(C(=O)Nc3ccc(Br)cc3)CCCC2)cc1 [MMV200748]
- Relative Bioluminescence (%) (2 µM compound): 64.99%
- Relative Bioluminescence (%) (10 µM compound): 61.91%

SMILES: COc1ccc(OC(C)C(=O)Nc2ccc(Cl)cc2C)cc1 (stereo not shown) [MMV202458]
- Relative Bioluminescence (%) (2 µM compound): 83.71%
- Relative Bioluminescence (%) (10 µM compound): 79.97%

SMILES: CCC(=O)Nc1ccccc1C(=O)Nc1ccccn1 [MMV202553]
- Relative Bioluminescence (%) (2 µM compound): 76.92%
- Relative Bioluminescence (%) (10 µM compound): 77.09%

SMILES: COc1cccc(NC(=O)c2c(NC(=O)c3cccnc3)sc3c2CCC3)c1 [MMV228911]
- Relative Bioluminescence (%) (2 µM compound): 73.96%
- Relative Bioluminescence (%) (10 µM compound): 11.53%

SMILES: COc1cccc(-n2nnnc2S(C)(=O)=O)c1 [MMV272144]
- Relative Bioluminescence (%) (2 µM compound): 2.64%
- Relative Bioluminescence (%) (10 µM compound): 0.19%
- EC50: 640 nM

SMILES: COc1cccc(-c2cc3c(Nc4cccnc4)nccc3[nH]2)c1 [MMV392832]
- Relative Bioluminescence (%) (2 µM compound): 70.60%
- Relative Bioluminescence (%) (10 µM compound): 51.50%

SMILES: CN1CCN(c2nccc3[nH]c(-c4cccc(F)c4)cc23)CC1 [MMV393144]
- Relative Bioluminescence (%) (2 µM compound): 92.24%
- Relative Bioluminescence (%) (10 µM compound): 81.97%

SMILES: Cc1cc(=O)[nH]c(-n2nc(C)cc2C)n1 [MMV393995]
- Relative Bioluminescence (%) (2 µM compound): 27.43%
- Relative Bioluminescence (%) (10 µM compound): 3.00%

SMILES: CCc1nc2ccc(C(=O)NCc3ccc4c(c3)OCO4)cn2c1N(C)Cc1cccs1 [MMV407539]
- Relative Bioluminescence (%) (2 µM compound): 104.77%
- Relative Bioluminescence (%) (10 µM compound): 70.84%

SMILES: CCOc1ccccc1NC(C)C(=O)Nc1cc(C(F)(F)F)ccc1N1CCOCC1 (stereo not shown) [MMV407834]
- Relative Bioluminescence (%) (2 µM compound): 70.36%
- Relative Bioluminescence (%) (10 µM compound): 63.07%

SMILES: COC(=O)c1c(NC(=O)c2c(F)c(F)c(F)c(F)c2F)sc2c1CCCCC2 [MMV461553]
- Relative Bioluminescence (%) (2 µM compound): 48.03%
- Relative Bioluminescence (%) (10 µM compound): -0.44%

SMILES: CC(C)(C)c1cnc(NC(=O)c2ccccc2O)s1 [MMV495543]
- Relative Bioluminescence (%) (2 µM compound): 70.90%
- Relative Bioluminescence (%) (10 µM compound): 27.02%

SMILES: CS(=O)(=O)Cc1nc2ccccc2oc1=O [MMV553002]
- Relative Bioluminescence (%) (2 µM compound): 72.57%
- Relative Bioluminescence (%) (10 µM compound): 58.91%

SMILES: c1ccc(-c2cc(N3CCCCC3)c3ccccc3n2)nc1 [MMV560185]
- Relative Bioluminescence (%) (2 µM compound): 64.27%
- Relative Bioluminescence (%) (10 µM compound): 94.77%

SMILES: CCC(Sc1nc2ccccc2o1)C(=O)Nc1nnc(C)s1 (stereo not shown) [MMV611037]
- Relative Bioluminescence (%) (2 µM compound): 55.30%
- Relative Bioluminescence (%) (10 µM compound): 44.60%

SMILES: O=C(NCCN1CCCC1)c1cc(NCCN2CCOCC2)nc2ccc(Cl)cc12 [MMV634140]
- Relative Bioluminescence (%) (2 µM compound): 112.61%
- Relative Bioluminescence (%) (10 µM compound): 73.96%

SMILES: CN1CCC[C@@H]1CCO[C@](C)(c1ccccc1)c1ccc(Cl)cc1 [MMV637229, Clemastine, reference compound]
- viability at 2 µM (2 µM compound): 47.3%
- viability at 10 µM (10 µM compound): 11.2%

SMILES: Cc1ccc(C(=O)Nc2ccc(S(=O)(=O)O)c3cc(S(=O)(=O)O)cc(S(=O)(=O)O)c23)cc1NC(=O)c1cccc(NC(=O)Nc2cccc(C(=O)Nc3cc(C(=O)Nc4ccc(S(=O)(=O)O)c5cc(S(=O)(=O)O)cc(S(=O)(=O)O)c45)ccc3C)c2)c1 [MMV637953, Suramin, reference compound]
- viability at 2 µM (2 µM compound): 105%
- viability at 10 µM (10 µM compound): 117%

SMILES: Cc1nc(-c2ccccn2)nc(N(C)CCc2ccccc2)c1Cl [MMV658988]
- Relative Bioluminescence (%) (2 µM compound): 32.93%
- Relative Bioluminescence (%) (10 µM compound): -2.26%

SMILES: Cc1nc(-c2ccccn2)nc(NCCc2ccc(S(C)(=O)=O)cc2)c1Cl [MMV658993]
- Relative Bioluminescence (%) (2 µM compound): 93.82%
- Relative Bioluminescence (%) (10 µM compound): 64.93%

SMILES: Cc1nc(-c2ccccn2)nc(N2CCC(Cc3ccccc3)C2)c1Cl (stereo not shown) [MMV659004]
- Relative Bioluminescence (%) (2 µM compound): 73.83%
- Relative Bioluminescence (%) (10 µM compound): -1.44%

SMILES: FC(F)(F)c1cc(NCCc2ccccc2)nc(-c2ccccn2)n1 [MMV659010]
- Relative Bioluminescence (%) (2 µM compound): 95.95%
- Relative Bioluminescence (%) (10 µM compound): 88.01%

SMILES: Brc1cncc(-c2cc(NCCCn3ccnc3)nc(-c3ccccc3)n2)c1 [MMV661713]
- Relative Bioluminescence (%) (2 µM compound): 76.01%
- Relative Bioluminescence (%) (10 µM compound): 83.31%

SMILES: Clc1cccc(C(c2ccc(CN3CCNCC3)cc2)n2ccnc2)c1 (stereo not shown) [MMV663250]
- Relative Bioluminescence (%) (2 µM compound): 96.52%
- Relative Bioluminescence (%) (10 µM compound): 69.77%

SMILES: O=C(NCCN1CCCC1)c1cc(NCCCCN2CCC(F)(F)CC2)nc2ccc(Cl)cc12 [MMV667494]
- Relative Bioluminescence (%) (2 µM compound): 55.75%
- Relative Bioluminescence (%) (10 µM compound): 61.89%

SMILES: Nc1ncc(-c2ccc(C(F)(F)F)nc2)cc1-c1ccc(C(F)(F)F)nc1 [MMV668727]
- Relative Bioluminescence (%) (2 µM compound): 68.46%
- Relative Bioluminescence (%) (10 µM compound): 78.89%

SMILES: Cc1[nH]c2cc(F)cc(F)c2c(=O)c1-c1ccc(Oc2ccc(OC(F)(F)F)cc2)cc1 [MMV671636]
- Relative Bioluminescence (%) (2 µM compound): 40.19%
- Relative Bioluminescence (%) (10 µM compound): 3.97%

SMILES: COc1ccc(OC)c(NCc2ccc3nc(N)nc(N)c3c2Cl)c1 [MMV675968]
- Relative Bioluminescence (%) (2 µM compound): 100.09%
- Relative Bioluminescence (%) (10 µM compound): 86.04%

SMILES: CC(C)(C)c1ccc(N[C@@H]2CCCC[C@H]2NC(=O)c2ccco2)cc1 [MMV675969]
- Relative Bioluminescence (%) (2 µM compound): 104.76%
- Relative Bioluminescence (%) (10 µM compound): 77.56%

SMILES: COc1ccc(-c2nn(C(C)C)c3ncnc(N)c23)cc1OC [MMV675993]
- Relative Bioluminescence (%) (2 µM compound): 66.21%
- Relative Bioluminescence (%) (10 µM compound): 27.37%

SMILES: Clc1ccc(-n2cc(COc3ccnc4ccccc34)nn2)cc1 [MMV675994]
- Relative Bioluminescence (%) (2 µM compound): 74.96%
- Relative Bioluminescence (%) (10 µM compound): 81.16%

SMILES: COc1ccc(N(CCc2cccc(C)n2)C(C)=O)cc1 [MMV675995]
- Relative Bioluminescence (%) (2 µM compound): 51.88%
- Relative Bioluminescence (%) (10 µM compound): 31.11%

SMILES: COc1ccc(N(CCc2cccc(C)n2)C(=O)C2CCCCC2)cc1 [MMV675996]
- Relative Bioluminescence (%) (2 µM compound): 63.13%
- Relative Bioluminescence (%) (10 µM compound): 25.83%

SMILES: N#CCN(CCCCN1CCN(c2ccc(F)cc2)CC1)C(=O)OCc1ccccc1 [MMV675997]
- Relative Bioluminescence (%) (2 µM compound): 116.18%
- Relative Bioluminescence (%) (10 µM compound): 97.48%

SMILES: COc1ccc(C(=N)N)cc1-c1cn(-c2ccc(C(=N)N)cc2)nn1 [MMV675998]
- Relative Bioluminescence (%) (2 µM compound): 92.81%
- Relative Bioluminescence (%) (10 µM compound): 65.21%
